Laboratory results: patent publication US11535643B2, “Macrolides with modified desosamine sugars and uses thereof” (President and Fellows of Harvard College, priority 2015, dated 2022)
Values after ≈ are worked out from the molar mass of the structure shown. Read-outs that look alike come from different tables or passages of the source.

Columns and labels:
Format in all cases: cell-based
[1] = tested on: S. aureus; test: Broth dilution MIC determination (CLSI) against S. aureus strains; settings: for MIC: Staphylococcus aureus
Summary of the method: (§1)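 Macrolide MICs come from CLSI-standard broth dilution testing of distinct strains, several multidrug-resistant, selected with attention to macrolide resistance mechanisms; two reference macrolides, azithromycin and solithromycin, were included.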

[2] = tested on: P. aeruginosa; test: Broth dilution MIC determination (CLSI) against P. aeruginosa strains; settings: Pseudomonas aeruginosa
Summary of the method: as §1

[3] = tested on: E. faecalis; test: Broth dilution MIC determination (CLSI) against E. faecalis strains; settings: for MIC: Enterococcus faecalis
Summary of the method: as §1

[4] = tested on: S. pyogenes; test: Broth dilution MIC determination (CLSI) against S. pyogenes strains; settings: Streptococcus pyogenes
Summary of the method: as §1

[5] = tested on: K. pneumoniae; test: Broth dilution MIC determination (CLSI) against K. pneumoniae strains; settings: for MIC: Klebsiella pneumoniae
Summary of the method: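 CLSI broth-dilution MICs across a panel including multidrug- and macrolide-resistant strains, with azithromycin and solithromycin as control compounds.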

[6] = tested on: H. influenzae; test: Broth dilution MIC determination (CLSI) against H. influenzae strains; settings: for MIC: Haemophilus influenzae
Summary of the method: as §1

[7] = tested on: E. coli; test: Broth dilution MIC determination (CLSI) against E. coli strains; settings: Escherichia coli
Summary of the method: as §1

[8] = tested on: S. pneumoniae; test: Broth dilution MIC determination (CLSI) against S. pneumoniae strains; settings: for MIC: Streptococcus pneumoniae
Summary of the method: as §1

[9] = tested on: A. baumannii; test: Broth dilution MIC determination (CLSI) against A. baumannii strains; settings: Acinetobacter baumannii
Summary of the method: as §1

[10] = ATCC29213, ATCC29213, read-out: MIC S. aureus ATCC29213
[11] = MRSA / USA100, MRSA: USA100, read-out: MIC S. aureus MRSA: USA100
[12] = MRSA / USA300, MRSA: USA300, read-out: MIC S. aureus MRSA: USA300
[13] = USA600, USA600, GISA, read-out: MIC S. aureus USA600, GISA
[14] = read-out: MIC S. aureus erm A genotype
[15] = ATCC27853, read-out: MIC P. aeruginosa ATCC27853
[16] = read-out: MIC P. aeruginosa HPA101-1477
[17] = ATCC29212, ATCC29212, read-out: MIC E. faecalis ATCC29212
[18] = Vancomycin-resistant, read-out: MIC E. faecalis Vancomycin-resistant
[19] = ATCC19615, ATCC19615, read-out: MIC S. pyogenes ATCC19615
[20] = macrolide-resistant, read-out: MIC S. pyogenes macrolide-resistant
[21] = ATCC10031, ATCC10031, read-out: MIC K. pneumoniae ATCC10031
[22] = KPC-2, read-out: MIC K. pneumoniae KPC-2
[23] = SHV-12, read-out: MIC K. pneumoniae SHV-12
[24] = TEM-10, read-out: MIC K. pneumoniae TEM-10
[25] = ATCC49247, ATCC49247, read-out: MIC H. influenzae ATCC49247
[26] = erythro > 4, azithro 1, read-out: MIC H. influenzae erythro > 4, azithro 1
[27] = ATCC25922, ATCC25922, read-out: MIC E. coli ATCC25922
[28] = read-out: MIC E. coli CTX-M-14, CTX-M-14
[29] = read-out: MIC E. coli NDM-1, NDM-1
[30] = read-out: MIC E. coli TEM-1, TEM-1
[31] = ATCC49619, ATCC49619, read-out: MIC S. pneumoniae ATCC49619
[32] = erm B + mef A genotype, read-out: MIC S. pneumoniae erm B + mef A genotype
[33] = erm B + tet(M, O) genotype, read-out: MIC S. pneumoniae erm B + tet(M, O) genotype
[34] = read-out: MIC S. pneumoniae mef A genotype, mef A genotype
[35] = read-out: MIC S. pneumoniae mef A genotype, mef A genotype, first of two such columns (c3)
[36] = ATCC19606, ATCC19606, read-out: MIC A. baumannii ATCC19606
[37] = IMP-4, read-out: MIC A. baumannii IMP-4
[38] = chromosomal class C, read-out: MIC A. baumannii chromosomal class C
[39] = imipenem-resistant, read-out: MIC A. baumannii imipenem-resistant

SMILES | MIC [1, 10] [µg/mL] | MIC [1, 11] [µg/mL] | MIC [1, 12] [µg/mL] | MIC [1, 13] [µg/mL] | MIC [1, 14] [µg/mL] | MIC [2, 15] [µg/mL] | MIC [2, 16] [µg/mL] | MIC [3, 17] [µg/mL] | MIC [3, 18] [µg/mL] | MIC [4, 19] [µg/mL] | MIC [4, 20] [µg/mL] | MIC [5, 21] [µg/mL] | MIC [5, 22] [µg/mL] | MIC [6, 25] [µg/mL] | MIC [7, 27] [µg/mL] | MIC [7, 29] [µg/mL] | MIC [8, 31] [µg/mL] | MIC [8, 33] [µg/mL] | MIC [9, 36] [µg/mL] | MIC [9, 39] [µg/mL] | also measured
CC[C@H]1OC(=O)[C@H](C)C(=O)[C@H](C)[C@@H](O[C@@H]2OC(CNC(=O)c3cnccn3)CC(N(C)C)C2O)[C@](C)(OC)C[C@@H](C)CN[C@H](C)[C@H]2N(CCCCn3cc(-c4cccc(N)c4)nn3)C(=O)O[C@]12C (some centres unmarked) [FSM-21881] | 8 (≈ 8.43 µM) | > 32 | > 32 | > 32 | > 32 | > 32 | > 32 | 2 (≈ 2.11 µM) | > 32 | ≤ 0.0312 | 2 (≈ 2.11 µM) | 8 (≈ 8.43 µM) | > 32 | 8 (≈ 8.43 µM) | 16 (≈ 16.9 µM) | > 32 | ≤ 0.0312 | ≤ 0.0312 | > 32 | > 32 | MIC [5, 23]: > 32 µg/mL; MIC [5, 24]: 32 µg/mL (≈ 33.7 µM); MIC [6, 26]: 2 µg/mL (≈ 2.11 µM); MIC [7, 28]: > 32 µg/mL; MIC [7, 30]: 32 µg/mL (≈ 33.7 µM); MIC [8, 32]: 4 µg/mL; MIC [8, 34]: 2 µg/mL (≈ 2.11 µM); MIC [8, 35]: 0.5 µg/mL (≈ 0.527 µM); MIC [9, 37]: > 32 µg/mL; MIC [9, 38]: > 32 µg/mL
CC[C@H]1OC(=O)[C@H](C)C(=O)[C@H](C)[C@@H](O[C@@H]2OC(CNC(=O)c3ccccn3)CC(N(C)C)C2O)[C@](C)(OC)C[C@@H](C)CN[C@H](C)[C@H]2N(CCCCn3cc(-c4cccc(N)c4)nn3)C(=O)O[C@]12C (some centres unmarked) [FSM-21887] | 8 (≈ 8.44 µM) | > 32 | > 32 | > 32 | > 32 | > 32 | > 32 | 0.5 (≈ 0.527 µM) | > 32 | ≤ 0.0312 | 1 (≈ 1.05 µM) | 8 (≈ 8.44 µM) | > 32 | 2 (≈ 2.11 µM) | 16 (≈ 16.9 µM) | 32 (≈ 33.7 µM) | ≤ 0.0312 | ≤ 0.0312 | 32 (≈ 33.7 µM) | 32 (≈ 33.7 µM) | MIC [5, 23]: > 32 µg/mL; MIC [5, 24]: 16 µg/mL (≈ 16.9 µM); MIC [6, 26]: 2 µg/mL (≈ 2.11 µM); MIC [7, 28]: > 32 µg/mL; MIC [7, 30]: 16 µg/mL (≈ 16.9 µM); MIC [8, 32]: 1 µg/mL; MIC [8, 34]: 0.5 µg/mL (≈ 0.527 µM); MIC [8, 35]: 0.0625 µg/mL (≈ 0.0659 µM); MIC [9, 37]: > 32 µg/mL; MIC [9, 38]: 32 µg/mL (≈ 33.7 µM)
CC[C@H]1OC(=O)[C@H](C)C(=O)[C@H](C)[C@@H](O[C@@H]2OC(CNC(=O)c3cc[nH]n3)CC(N(C)C)C2O)[C@](C)(OC)C[C@@H](C)CN[C@H](C)[C@H]2N(CCCCn3cc(-c4cccc(N)c4)nn3)C(=O)O[C@]12C (some centres unmarked) [FSM-21888] | 32 (≈ 34.1 µM) | > 32 | > 32 | > 32 | > 32 | > 32 |  | 4 (≈ 4.27 µM) | > 32 | < 0.0313 | 1 (≈ 1.07 µM) | 8 (≈ 8.54 µM) | > 32 | 8 (≈ 8.54 µM) | 32 (≈ 34.1 µM) | > 32 | < 0.0313 | < 0.0313 | > 32 | > 32 | MIC [6, 26]: 8 µg/mL (≈ 8.54 µM); MIC [8, 32]: 2 µg/mL; MIC [8, 35]: 0.25 µg/mL (≈ 0.267 µM)
CC[C@H]1OC(=O)[C@H](C)C(=O)[C@H](C)[C@@H](O[C@@H]2OC(CN(C)C)CC(N(C)C)C2O)[C@](C)(OC)C[C@@H](C)CN(C)[C@H](C)[C@H]2N(CCCCn3cc(-c4cccc(N)c4)nn3)C(=O)O[C@]12C (some centres unmarked) [FSM-22003] | 8 (≈ 9.04 µM) | > 32 | > 32 | > 32 | > 32 | > 32 | > 32 | 4 (≈ 4.52 µM) | > 32 | ≤ 0.0312 | 2 (≈ 2.26 µM) | 8 (≈ 9.04 µM) | > 32 | 8 (≈ 9.04 µM) | > 32 | > 32 | ≤ 0.0312 | ≤ 0.0312 | > 32 | > 32 | MIC [5, 23]: > 32 µg/mL; MIC [5, 24]: > 32 µg/mL; MIC [6, 26]: 4 µg/mL (≈ 4.52 µM); MIC [7, 28]: > 32 µg/mL; MIC [7, 30]: 32 µg/mL (≈ 36.2 µM); MIC [8, 32]: 32 µg/mL; MIC [8, 34]: 0.5 µg/mL (≈ 0.565 µM); MIC [8, 35]: 0.0625 µg/mL (≈ 0.0706 µM); MIC [9, 37]: > 32 µg/mL; MIC [9, 38]: > 32 µg/mL
CC[C@H]1OC(=O)[C@H](C)C(=O)[C@H](C)[C@@H](O[C@@H]2OC(Cn3cc(-c4ccccn4)nn3)CC(N(C)C)C2O)[C@](C)(OC)C[C@@H](C)CN[C@H](C)[C@H]2N(CCCCn3cc(-c4cccc(N)c4)nn3)C(=O)O[C@]12C (some centres unmarked) [FSM-22111] |  | > 32 | > 32 | > 32 | > 32 | > 32 | > 32 |  | > 32 | ≤ 0.0312 | 1 (≈ 1.03 µM) | 8 (≈ 8.23 µM) | 32 (≈ 32.9 µM) | 2 (≈ 2.06 µM) | 16 (≈ 16.5 µM) | 32 (≈ 32.9 µM) | ≤ 0.0312 | ≤ 0.0312 | 16 (≈ 16.5 µM) | 16 (≈ 16.5 µM) | MIC S. aureus ATCC29213 ([1]; ATCC29213): 2 µg/mL (≈ 2.06 µM); MIC E. faecalis ATCC29212 ([3]; ATCC29212): 0.25 µg/mL (≈ 0.257 µM); MIC [5, 23]: > 32 µg/mL; MIC K. pneumoniae TEM-10 ([5]; TEM-10): 8 µg/mL (≈ 8.23 µM); MIC H. influenzae erythro > 4, azithro 1 ([6]; erythro > 4, azithro 1): 1 µg/mL (≈ 1.03 µM); MIC [7, 28]: > 32 µg/mL; MIC [7, 30]: 16 µg/mL (≈ 16.5 µM); MIC S. pneumoniae erm B + mef A genotype ([8]; erm B + mef A genotype): 2 µg/mL; MIC [9, 37]: > 32 µg/mL; MIC [9, 38]: 16 µg/mL (≈ 16.5 µM)
